Like-named read-outs stand apart in the source and are kept apart here.
What was measured:
β-catenin [1] = test: Expression of β-catenin protein in dermal papilla cells (SDS-PAGE / anti-β-catenin antibody); assay type: cell-based, human; settings: for activity at 2 µg/mL / activity at 20 µg/mL: Homo sapiens, 24 h, read-out: Expression level of β-catenin protein (%)
Description: Human dermal papilla cells were seeded onto a 6-well plate at 500,000 cells/well and then incubated for 1 day after treating with 2 or 20 μg/mL valechlorine, tussilagone, periplocin, lysionotin, nitidine, lanosterol, engeletin, specnuezhenide, praeruptorin B, rotundic acid, sesamoside or polyphyllin VII. After the incubation, the cells were lysed using an M-PER lysis buffer and a cell lysate of the same volume was loaded on SDS-PAGE gel. After transferring the cell lysate loaded on the SDS-PAGE gel to a nitrocellulose membrane, proteins were detected by attaching anti-β-catenin antibodies to the nitrocellulose membrane. GAPDH was used as a control for calibrating the quantity of proteins. The amount of β-catenin increased by the valechlorine, tussilagone, periplocin, lysionotin, nitidine, lanosterol, engeletin, specnuezhenide, praeruptorin B, rotundic acid, sesamoside or polyphyllin VII was investigated. The control group was set at 100%, and the results were represented as a percentage compared to the control group as shown in Table 5.

[2] = tested on: human-derived dermal papilla cells (DPCs); test: Proliferation of dermal papilla cells (CCK-8); assay type: cell-based; settings: for activity at 2 µg/mL / activity at 20 µg/mL: read-out: Proliferation of dermal papilla cells (%)
Description: The effect of promoting the proliferation of dermal papilla cells was investigated using human-derived dermal papilla cells (DPCs). The human-derived dermal papilla cells were purchased from PromoCell. The DPCs were cultured using a medium (follicle dermal papilla cell growth medium; PromoCell, Heidelberg, Germany) and a medium additive (supplement mix; PromoCell, Heidelberg, Germany) recommended by PromoCell under the condition of 37° C. and 5% CO2. The cultured DPCs were seeded onto a 96-well plate at 3,000 cells/well and then cultured for 24 hours under 0.1% serum condition. Then, the cultured cells were incubated for 1 day after treating with DMSO diluted with serum-free DMEM to 1:1000 (vehicle), 0.1 μg/mL minoxidil as a positive control group, or at 2 or 20 μg/mL valechlorine, tussilagone, periplocin, lysionotin, nitidine, lanosterol, engeletin, specnuezhenide, praeruptorin B, rotundic acid, sesamoside or polyphyllin VII. After the incubation, cell proliferation was evaluated by the CCK method. CCK-8 was treated to a medium at 1:10 and then incubated for 1 hour. 1 hour later, the absorbance of each well was measured at 450 nm. All experiments were repeated 3 times and the average of absorbance was calculated. The control group was set at 100%, and the results were represented as a percentage compared to the control group.

β-catenin [3] = test: Expression of β-catenin protein in dermal papilla cells (SDS-PAGE / anti-β-catenin antibody); assay type: cell-based, human; settings: 0.5 μg/mL (positive control); control group = 100%
[4] = 2 μg/mL, 1 day, control group = 100%, GAPDH calibration
[5] = 20 μg/mL, 1 day, control group = 100%, GAPDH calibration
[6] = Homo sapiens, 24 h, 2 μg/mL, 1 day, control group = 100%
[7] = Homo sapiens, 24 h, 20 μg/mL, 1 day, control group = 100%

Molecule	activity at 2 µg/mL (β-catenin [1]; [4]) [%]	activity at 20 µg/mL (β-catenin [1]; [5]) [%]	activity at 2 µg/mL [2, 6] [%]	activity at 20 µg/mL [2, 7] [%]	also measured
C=C1[C@H](OC(=O)/C=C(\C)CC)C[C@@H](C(C)C)[C@@H]2[C@@H]([C@H](C)OC(C)=O)C(=O)C[C@@H]12 [Tussilagone]	208	253	157	178	–
C/C=C(\C)C(=O)OC1c2c(ccc3ccc(=O)oc23)OC(C)(C)C1OC(=O)/C(C)=C/C (stereo not drawn) [Praeruptorin B]	–	–	–	–	activity at 2 µg/mL (β-catenin [1]): 211%; activity at 20 µg/mL (β-catenin [1]): 250%; activity at 2 µg/mL ([2]; Homo sapiens, 24 h): 144%; activity at 20 µg/mL ([2]; Homo sapiens, 24 h): 173%
COC(=O)C1=CO[C@@H](O[C@@H]2O[C@H](CO)[C@@H](O)[C@H](O)[C@H]2O)[C@@H]2[C@@]3(C)O[C@H]3[C@@H](O)[C@]12O [Sesamoside]	245	295	168	194	–
COc1ccc(-c2cc(=O)c3c(O)c(OC)c(O)c(OC)c3o2)cc1 [Lysionotin]	210	232	164	179	–
Nc1cc(N2CCCCC2)nc(N)[n+]1[O-] [Minoxidil, reference compound]	–	–	–	–	activity at 0.1 µg/mL ([2]; Homo sapiens, 24 h, 100 ng/ml (positive control), 1 day, control group = 100%): 130%
Engeletin	–	–	–	–	Expression level of β-catenin protein (%) (β-catenin [1]; [4]): 231.1%; Expression level of β-catenin protein (%) (β-catenin [1]; [5]): 276.3%; Proliferation of dermal papilla cells (%) ([2]; 2 μg/mL, 1 day, control group = 100%): 143.2%; Proliferation of dermal papilla cells (%) ([2]; 20 μg/mL, 1 day, control group = 100%): 188.1%
CC(=O)OCC1=CO[C@@H](OC(=O)CC(C)C)[C@H]2C1=C[C@H](OC(=O)CC(C)C)[C@]2(O)CCl [Valechlorine]	–	–	–	–	activity at 2 µg/mL (β-catenin [1]): 217%; activity at 20 µg/mL (β-catenin [1]): 234%; activity at 2 µg/mL ([2]; Homo sapiens, 24 h): 146%; activity at 20 µg/mL ([2]; Homo sapiens, 24 h): 159%
COc1cc2c[n+](C)c3c4cc5c(cc4ccc3c2cc1OC)OCO5 [Nitidine]	220	262	155	181	–
C/C=C1/[C@H](O[C@@H]2O[C@H](CO)[C@@H](O)[C@H](O)[C@H]2O)OC=C(C(=O)OC)[C@H]1CC(=O)OC[C@H]1O[C@@H](OCCc2ccc(O)cc2)[C@H](O)[C@@H](O)[C@@H]1O [Specnuezhenide]	216	289	150	170	–
CC(C)=CCC[C@@H](C)[C@H]1CC[C@@]2(C)C3=C(CC[C@]12C)[C@@]1(C)CC[C@H](O)C(C)(C)[C@@H]1CC3 [Lanosterol]	241	246	143	189	–
C[C@@H]1CC[C@]2(C(=O)O)CC[C@]3(C)C(=CC[C@@H]4[C@@]5(C)CC[C@H](O)[C@@](C)(CO)[C@@H]5CC[C@]43C)[C@@H]2[C@]1(C)O [Rotundic acid]	211	258	156	183	–
Wnt3a: Wnt3a protein (positive control group) which binds directly to the receptor of Wnt/β-catenin (protein, UniProt P56704 19-352, looked up) Protein Wnt-3a: SYPIWWSLAVGPQYSSLGSQPILCASIPGLVPKQLRFCRNYVEIMPSVAEGIKIGIQECQHQFRGRRWNCTTVHDSLAIFGPVLDKATRESAFVHAIASAGVAFAVTRSCAEGTAAICGCSSRHQGSPGKGWKWGGCSEDIEFGGMVSREFADARENRPDARSAMNRHNNEAGRQAIASHMHLKCKCHGLSGSCEVKTCWWSQPDFRAIGDFLKDKYDSASEMVVEKHRESRGWVETLRPRYTYFKVPTERDLVYYEASPNFCEPNPETGSFGTRDRTCNVSSHGIDGCDLLCCGRGHNARAERRREKCRCVFHWCCYVSCQECTRVYDVHTCK	–	–	–	–	Expression level of β-catenin protein (%) (β-catenin [3]): 208.8%
